The source made the active and inactive calls. The rule behind the calls is not given here.
How the values were obtained:
[1] = target: T1, Nitric oxide synthase, inducible (Mus musculus) (UniProt P29477); test: Inhibition of iNOS-mediated nitric oxide production in LPS-stimulated mouse RAW 264.7 cells treated 2 hrs before LPS challenge measured after 18 hrs by Griess reaction method relative to control; type: cell-based; design: concentration or dose not given beside the values; conditions: concentration not given here
T1 sequence (whole entry): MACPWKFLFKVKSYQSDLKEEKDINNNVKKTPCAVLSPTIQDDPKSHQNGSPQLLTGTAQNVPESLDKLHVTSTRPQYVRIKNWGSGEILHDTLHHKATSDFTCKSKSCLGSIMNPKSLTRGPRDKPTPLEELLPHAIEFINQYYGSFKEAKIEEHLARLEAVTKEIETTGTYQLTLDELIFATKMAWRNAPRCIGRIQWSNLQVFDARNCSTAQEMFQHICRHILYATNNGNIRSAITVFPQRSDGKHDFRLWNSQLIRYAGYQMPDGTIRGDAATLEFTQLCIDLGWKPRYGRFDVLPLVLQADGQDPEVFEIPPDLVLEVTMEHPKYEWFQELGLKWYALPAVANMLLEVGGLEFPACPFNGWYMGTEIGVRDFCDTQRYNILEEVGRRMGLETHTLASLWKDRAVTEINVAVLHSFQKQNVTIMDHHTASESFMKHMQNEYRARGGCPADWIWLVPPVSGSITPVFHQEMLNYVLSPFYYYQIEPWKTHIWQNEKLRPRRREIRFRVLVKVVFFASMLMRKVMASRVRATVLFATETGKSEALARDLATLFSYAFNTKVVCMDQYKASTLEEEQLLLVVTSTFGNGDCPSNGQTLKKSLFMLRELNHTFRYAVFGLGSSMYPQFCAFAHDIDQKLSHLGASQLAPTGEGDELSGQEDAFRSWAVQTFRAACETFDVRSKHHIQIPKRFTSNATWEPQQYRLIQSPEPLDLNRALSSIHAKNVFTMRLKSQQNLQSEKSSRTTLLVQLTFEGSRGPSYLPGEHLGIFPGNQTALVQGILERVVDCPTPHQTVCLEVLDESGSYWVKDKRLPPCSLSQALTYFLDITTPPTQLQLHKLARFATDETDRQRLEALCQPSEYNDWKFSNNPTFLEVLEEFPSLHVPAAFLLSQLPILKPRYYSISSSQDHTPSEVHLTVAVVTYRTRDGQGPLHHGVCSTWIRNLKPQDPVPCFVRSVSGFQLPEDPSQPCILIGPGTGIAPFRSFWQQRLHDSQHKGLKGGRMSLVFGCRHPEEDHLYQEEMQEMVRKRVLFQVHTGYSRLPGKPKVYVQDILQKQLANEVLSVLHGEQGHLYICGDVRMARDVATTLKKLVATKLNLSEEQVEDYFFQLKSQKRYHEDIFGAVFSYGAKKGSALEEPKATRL

[2] = test system: RAW264.7; test: Cytotoxicity against LPS-stimulated mouse RAW264.7 cells after 24 hrs by MTT assay; type: cell-based; conditions: RAW264.7, 24 h
[3] = target: T2, Nitric oxide synthase, inducible (Mus musculus, UniProt P29477)
T2 sequence (P29477 whole entry): T1 sequence (whole entry)
Description: Inhibition of iNOS in LPS-stimulated mouse RAW 264.7 cells after 2 hrs by fluorescence plate reader analysis

[4] = target: T3, Prostaglandin G/H synthase 2 (Mus musculus, UniProt Q05769); test: Inhibition of COX2-mediated PGE2 production in LPS-stimulated mouse RAW 264.7 cells after 24 hrs by ELISA; type: cell-based
T3 sequence (Q05769 whole entry): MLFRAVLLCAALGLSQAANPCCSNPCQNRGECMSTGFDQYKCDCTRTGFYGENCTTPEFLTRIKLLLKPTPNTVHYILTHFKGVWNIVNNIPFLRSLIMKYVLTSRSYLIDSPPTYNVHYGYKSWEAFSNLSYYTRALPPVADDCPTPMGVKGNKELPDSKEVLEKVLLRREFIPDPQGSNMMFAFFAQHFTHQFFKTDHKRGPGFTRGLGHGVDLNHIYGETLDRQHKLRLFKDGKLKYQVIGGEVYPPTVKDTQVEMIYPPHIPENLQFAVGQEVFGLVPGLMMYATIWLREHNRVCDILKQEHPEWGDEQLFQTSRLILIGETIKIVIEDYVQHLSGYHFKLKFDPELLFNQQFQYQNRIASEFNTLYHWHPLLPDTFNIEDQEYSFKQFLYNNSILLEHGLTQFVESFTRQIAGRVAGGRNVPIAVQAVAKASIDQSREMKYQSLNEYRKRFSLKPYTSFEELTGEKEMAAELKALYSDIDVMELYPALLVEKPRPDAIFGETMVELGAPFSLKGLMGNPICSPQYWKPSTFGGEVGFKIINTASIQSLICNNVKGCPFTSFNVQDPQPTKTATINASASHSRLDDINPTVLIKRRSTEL

[5] = test system: RAW264.7; test: cells; conditions: Mus musculus, RAW264.7, 24 h
Description: Cytotoxicity against mouse RAW264.7 cells after 24 hrs by MTT assay

[6] = target: T2, Nitric oxide synthase, inducible; remark: listed apart in the source
[7] = test system: Rattus norvegicus; test: AUC (0 to t) in Sprague-Dawley rat at 50 mg/kg, po; type: ADME, organism-based, Plasma; design: dose 50 mg/kg, route oral; conditions: in vivo
[8] = test system: Mus musculus; test: Antiinflammatory activity in ICR mouse assessed as inhibition of carrageenan-induced paw edema at 10 mg/kg, po administered 30 mins before carrageenan challenge measured up to 5 hrs; type: functional
[9] = test system: Rattus norvegicus; test: AUC (0 to t) in Sprague-Dawley rat at 10 mg/kg, iv; type: ADME, organism-based, Plasma; design: dose 10 mg/kg, route intravenous; conditions: in vivo
[10] = test system: Rattus norvegicus; test: Antiarthritic activity in heat-killed mycobacterium tuberculosis-induced Lewis rat arthritis model assessed as increase in boy weight at 50 mg/kg, po QD for 28 relative to control; type: functional
[11] = test system: RAW264.7; test: Inhibition of LPS-induced iNOS protein expression in mouse RAW264.7 cells treated 2 hrs before LPS challenge measured after 18 hrs by Western blotting; type: functional, cell-based
[12] = test system: Rattus norvegicus; test: Antiarthritic activity in heat-killed mycobacterium tuberculosis-induced Lewis rat arthritis model assessed as leukocytes infiltreated into synovial tissue and synovial fluid of joints at 50 mg/kg, po QD for 28 using hematoxylin and eosin staining by microscopic analysis; type: functional, organism-based; design: dose 50 mg/kg
[13] = Oral bioavailability in Sprague-Dawley rat at 50 mg/kg; type: ADME, organism-based; conditions: in vivo
[14] = test system: RAW264.7; test: Inhibition of LPS-induced COX2 protein expression in mouse RAW264.7 cells at 12 to 24 uM treated 2 hrs before LPS challenge measured after 18 hrs by Western blotting; type: functional, cell-based
[15] = Tmax in Sprague-Dawley rat at 50 mg/kg, po; type: ADME, organism-based; design: dose 50 mg/kg, route oral; conditions: in vivo
[16] = Cmax in Sprague-Dawley rat at 10 mg/kg, iv; type: ADME, organism-based; design: dose 10 mg/kg, route intravenous; conditions: in vivo
[17] = test system: Mus musculus; test: Antiinflammatory activity in ICR mouse assessed as inhibition of carrageenan-induced paw edema at 50 mg/kg, po administered 30 mins before carrageenan challenge measured up to 5 hrs; type: functional
[18] = Half life in Sprague-Dawley rat at 10 mg/kg, iv; type: ADME, organism-based; design: dose 10 mg/kg, route intravenous; conditions: in vivo
[19] = Tmax in Sprague-Dawley rat at 10 mg/kg, iv; type: ADME, organism-based; design: dose 10 mg/kg, route intravenous; conditions: in vivo
[20] = Cmax in Sprague-Dawley rat at 50 mg/kg, po; type: ADME, organism-based; design: dose 50 mg/kg, route oral; conditions: in vivo
[21] = test system: Mus musculus; test: Antiinflammatory activity against acetic acid-induced vascular permeability in ICR mouse assessed as evans blue peritoneal leakage at 10 to 50 mg/kg, ip administered 30 mins before acetic acid challenge measured after 50 mins; type: functional, organism-based
[22] = Half life in Sprague-Dawley rat at 50 mg/kg, po; type: ADME, organism-based; design: dose 50 mg/kg, route oral; conditions: in vivo
[23] = organism: Mus musculus; conditions: ICR, 10 mg/kg
Description: Antiinflammatory activity against acetic acid-induced vascular permeability in ICR mouse assessed as evans blue peritoneal leakage at 10 mg/kg, ip administered 30 mins before acetic acid challenge measured after 50 mins

[24] = test system: Rattus norvegicus; test: Antiarthritic activity in heat-killed mycobacterium tuberculosis-induced Lewis rat arthritis model assessed as decrease in arthritic score at 50 mg/kg, po QD for 28; type: functional, organism-based; design: dose 50 mg/kg

Question: With `Cc1ccc(NC(=O)COc2ccc(/C=C3\SC(=O)NC3=O)cc2)nc1` as the compound, how does the inhibition [1] read?
Answer: 12.5%

Question: For `CC(=O)c1ccc(NC(=O)COc2ccc(/C=C3\SC(=O)NC3=O)cc2)cc1`, which inhibition [1] is on record?
Answer: 10.2%

Question: Which inhibition [1] does the source give for `COc1ccc(NC(=O)COc2ccc(/C=C3\SC(=O)NC3=O)cc2)cc1` here?
Answer: 0.6%

Question: With `O=C(COc1ccc(/C=C2\SC(=O)NC2=O)cc1)Nc1ccc(F)cc1` as the compound, how does the inhibition [1] read?
Answer: 57.9%

Question: Which IC50 [2] does the source give for `O=C(COc1ccc(/C=C2\SC(=O)NC2=O)cc1)Nc1cccc2ccccc12` here?
Answer: 55 µM

Question: What about the IC50 [3] of the same compound?
Answer: 40 µM

Question: What about the IC50 [4] of the same compound?
Answer: 16.1 µM

Question: What about the IC50 [5] of the same compound?
Answer: 62.3 µM

Question: And the inhibition [1]?
Answer: 70.9%

Question: What about the IC50 [6] of the same compound?
Answer: 20.9 µM

Question: What does the source list for `O=C(COc1ccc(/C=C2\SC(=O)NC2=O)cc1)Nc1ccc(F)c(F)c1`?
Answer: IC50 [2]: > 100 µM; IC50 [3]: 34.1 µM; IC50 [4]: 7.12 µM; IC50 [5]: > 100 µM; inhibition [1]: 83.9%; IC50 [6]: 13.9 µM

Question: For `O=C(COc1ccc(/C=C2\SC(=O)NC2=O)cc1)Nc1ccc(C(F)(F)F)cc1`, which inhibition [1] is on record?
Answer: 26.6%

Question: With `O=C(COc1ccc(/C=C2\SC(=O)NC2=O)cc1)Nc1cccc(F)c1` as the compound, how does the inhibition [1] read?
Answer: 41.5%

Question: With `O=C(COc1ccc(/C=C2\SC(=O)NC2=O)cc1)Nc1ccc2ccccc2c1` as the compound, how does the inhibition [1] read?
Answer: 45.1%

Question: For `COc1ccc(NC(=O)COc2ccc(/C=C3\SC(=O)NC3=O)cc2)cc1OC`, which inhibition [1] is on record?
Answer: 16.2%

Question: For `O=C(COc1ccc(/C=C2\SC(=O)NC2=O)cc1)Nc1ccc(F)c(Cl)c1`, which inhibition [1] is on record?
Answer: 36%

Question: With `Cc1ccc(NC(=O)COc2ccc(/C=C3\SC(=O)NC3=O)cc2)cc1` as the compound, how does the inhibition [1] read?
Answer: 38.4%

Question: With `CN(C(=O)COc1ccc(/C=C2\SC(=O)NC2=O)cc1)c1ccccc1` as the compound, how does the inhibition [1] read?
Answer: 51%

Question: With `O=C(COc1ccc(/C=C2\SC(=O)NC2=O)cc1)NCc1ccccc1` as the compound, how does the inhibition [1] read?
Answer: 41.6%

Question: For `O=C(COc1ccc(/C=C2\SC(=O)NC2=O)cc1)Nc1ccc(Cl)cc1Cl`, which inhibition [1] is on record?
Answer: 10%

Question: For `O=C(COc1ccc(/C=C2\SC(=O)NC2=O)cc1)Nc1cccc(Cl)c1`, which AUC [7] is on record?
Answer: 10 uM.hr/L

Question: What about the IC50 [2] of the same compound?
Answer: > 100 µM

Question: And the inhibition [8]?
Answer: Active

Question: What about the inhibition in vivo at 10 mg/kg [8] of the same compound?
Answer: 33.3%

Question: And the IC50 [3]?
Answer: 23.6 µM

Question: And the IC50 [4]?
Answer: 4.16 µM

Question: What about the IC50 [5] of the same compound?
Answer: > 100 µM

Question: What about the AUC [9] of the same compound?
Answer: 11.05 uM.hr/L

Question: And the Activity [10]?
Answer: 15.1%

Question: And the inhibition [11]?
Answer: Dose-dependent effect

Question: And the Activity [12]?
Answer: Active

Question: And the bioavailability [13]?
Answer: 18.1%

Question: What about the inhibition [14] of the same compound?
Answer: Active

Question: What about the Tmax [15] of the same compound?
Answer: 10.8 min

Question: What about the inhibition [1] of the same compound?
Answer: 80.9%

Question: What about the Cmax [16] of the same compound?
Answer: 27 µM

Question: What about the inhibition in vivo at 50 mg/kg [17] of the same compound?
Answer: 36.2%

Question: What about the half-life [18] of the same compound?
Answer: 16.8 min

Question: And the Tmax [19]?
Answer: 4.8 min

Question: And the Cmax [20]?
Answer: 15.3 µM

Question: And the inhibition [21]?
Answer: inactive

Question: What about the half-life [22] of the same compound?
Answer: 130 min

Question: And the IC50 [6]?
Answer: 8.66 µM

Question: For `O=C(COc1ccc(/C=C2\SC(=O)NC2=O)cc1)NC1CCCCC1`, which inhibition [1] is on record?
Answer: 47.8%

Question: What does the source list for `O=C(COc1ccc(/C=C2\SC(=O)NC2=O)cc1)Nc1cc(Cl)cc(Cl)c1`?
Answer: IC50 [2]: > 100 µM; IC50 [3]: 57.4 µM; IC50 [4]: 14.8 µM; IC50 [5]: > 100 µM; inhibition [1]: 72%; IC50 [6]: 26.1 µM

Question: For `O=C(COc1ccc(/C=C2\SC(=O)NC2=O)cc1)Nc1ccc(Br)cc1`, which inhibition [1] is on record?
Answer: 23.7%

Question: Which inhibition [1] does the source give for `O=C(COc1ccc(/C=C2\SC(=O)NC2=O)cc1)Nc1ccccn1` here?
Answer: 14.6%

Question: Which IC50 [2] does the source give for `COc1ccc2c(c1)c(CC(=O)O)c(C)n2C(=O)c1ccc(Cl)cc1` [INDOMETHACIN] here?
Answer: > 100 µM

Question: What about the IC50 [5] of the same compound?
Answer: > 100 µM

Question: And the inhibition [23]?
Answer: Active

Question: What about the Activity [24] of the same compound?
Answer: Active

Question: And the inhibition [1]?
Answer: 63.2%

Question: With `O=C(COc1ccc(/C=C2\SC(=O)NC2=O)cc1)Nc1ccccc1` as the compound, how does the inhibition [1] read?
Answer: 55.3%

Question: Which inhibition [1] does the source give for `O=C(COc1ccc(/C=C2\SC(=O)NC2=O)cc1)Nc1ccc(Cl)cc1` here?
Answer: 9.7%

Reference: ChEMBL document CHEMBL1765006, “Synthesis and biological evaluation of novel 5-benzylidenethiazolidine-2,4-dione derivatives for the treatment of inflammatory diseases” (J Med Chem, 2011)
